Measurements as given in ChEMBL document CHEMBL1201862, “PubChem BioAssay data set” (2004).
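Following 48 hours of exposure in 96-well plates, responses at five concentrations were used to interpolate endpoints linearly. GI50 is the concentration that inhibits growth by half.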 Calls of active or inactive are those of the source. Cut-off read from the data, not from the text of the source: active = GI50 up to about 1.1 µM and inactive = higher.

Legend:
Experiment in all cases: NCI-60 cell line screen, 48 h
[1] = system: SK-OV-3
[2] = system: CCRF-CEM
[3] = system: OVCAR-8
[4] = system: Malme-3M
[5] = system: HCT-116
[6] = system: LOX IMVI
[7] = system: SF-539
[8] = system: TK-10
[9] = system: EKVX
[10] = system: KM12
[11] = system: SR
[12] = system: A549
[13] = system: NCI-H522
[14] = system: SK-MEL-5
[15] = system: ACHN
[16] = system: SW-620
[17] = system: HL-60
[18] = system: DLD-1
[19] = system: HCC 2998
[20] = system: LXFL 529
[21] = system: HOP-18
[22] = system: M14
[23] = system: HCT-15
[24] = system: DMS-273
[25] = system: SNB-78
[26] = system: MOLT-4
[27] = system: XF498
[28] = system: NCI-H226
[29] = system: OVCAR-3
[30] = system: SNB-75
[31] = system: SN12C
[32] = system: HOP-62
[33] = system: CAKI-1
[34] = system: HOP-92
[35] = system: UACC-62
[36] = system: RPMI-8226
[37] = system: COLO 205
[38] = system: SNB-19
[39] = system: SF-268
[40] = system: SF-295
[41] = system: NCI-H460
[42] = system: A498
[43] = system: SK-MEL-28
[44] = system: OVCAR-4
[45] = system: K562
[46] = system: 786-0
[47] = system: IGROV-1
[48] = system: UACC-257
[49] = system: U-251
[50] = system: KM-20L2
[51] = system: NCI-H23
[52] = system: OVCAR-5
[53] = system: RXF 631
[54] = system: UO-31
[55] = system: HT-29
[56] = system: SK-MEL-2
[57] = system: M19-MEL

O=C(Cc1nc2ccc(C(=O)c3ccccc3)cc2nc1O)C(=O)Nc1ccc(C(F)(F)F)cc1[N+](=O)[O-]
GI50 [1]: > 100 µM (inactive)
GI50 [2]: 27.3 µM (inactive)
GI50 [3]: 69 µM (inactive)
GI50 [4]: > 100 µM (inactive)
GI50 [5]: 96.2 µM (inactive)
GI50 [6]: 39.4 µM (inactive)
GI50 [7]: 53.3 µM (inactive)
GI50 [8]: > 100 µM (inactive)
GI50 [9]: 11.7 µM (inactive)
GI50 [10]: 59 µM (inactive)
GI50 [11]: 26.9 µM (inactive)
GI50 [12]: > 100 µM (inactive)
GI50 [13]: 31.3 µM (inactive)
GI50 [14]: 39.7 µM (inactive)
GI50 [15]: > 100 µM (inactive)
GI50 [16]: 47.4 µM (inactive)
GI50 [17]: 31.6 µM (inactive)
GI50 [18]: > 100 µM (inactive)
GI50 [19]: > 100 µM (inactive)
GI50 [20]: 35.8 µM (inactive)
GI50 [21]: 65.2 µM (inactive)
GI50 [22]: > 100 µM (inactive)
GI50 [23]: > 100 µM
GI50 [24]: 99.1 µM (inactive)
GI50 [25]: 81.1 µM (inactive)
GI50 [26]: 22.8 µM (inactive)
GI50 [27]: 27.5 µM (inactive)
GI50 [28]: 87.1 µM (inactive)
GI50 [29]: 38.7 µM (inactive)
GI50 [30]: 45.9 µM (inactive)
GI50 [31]: > 100 µM (inactive)
GI50 [32]: 91.8 µM (inactive)
GI50 [33]: 30.8 µM (inactive)
GI50 [34]: 35.3 µM (inactive)
GI50 [35]: 38.9 µM (inactive)
GI50 [36]: 42.5 µM (inactive)
GI50 [37]: 45 µM (inactive)
GI50 [38]: 94.8 µM (inactive)
GI50 [39]: 65 µM (inactive)
GI50 [40]: 94.2 µM (inactive)
GI50 [41]: 57.8 µM (inactive)
GI50 [42]: 90.4 µM (inactive)
GI50 [43]: 82.6 µM (inactive)
GI50 [44]: > 100 µM (inactive)
GI50 [45]: 27.6 µM (inactive)
GI50 [46]: > 100 µM (inactive)
GI50 [47]: > 100 µM (inactive)
GI50 [48]: > 100 µM (inactive)
GI50 [49]: > 100 µM (inactive)
GI50 [50]: 56.4 µM (inactive)
GI50 [51]: 75 µM (inactive)
GI50 [52]: > 100 µM (inactive)
GI50 [53]: 96.6 µM (inactive)
GI50 [54]: 61.2 µM (inactive)
GI50 [55]: 50.9 µM (inactive)
GI50 [56]: > 100 µM (inactive)
GI50 [57]: 58.1 µM (inactive)
